US9228175B2, “Genes encoding a novel type of lysophophatidylcholine acyltransferases and their use to increase triacylglycerol production and/or modify fatty acid composition” (National Research Counsel of Canada, priority 2006, dated 2016)

Legend:
[1] = test system: parental (WT) yeast strain; experiment: Lyso-PAF and lyso-PC sensitivity plate test, parental strain; assay type: cell-based, Saccharomyces cerevisiae; conditions: plate assay
Description: (§1) Cells were frown first in SC-URA+2% glucose media overnight then in protein expression induction media for six hours. Cultures were diluted to OD600 value of OD600 0.5, 1, 2, 3, respectively, from which 5 μl were inoculated (from left to right) onto YPD plate containing lyso-PAF or lyso-PC. The plates were incubated at 28° C. for 36 hours.
(§2) Lyso-PAF sensitivity: Yeast strains Y02431 over-expressing LCA1 or harboring empty vector were first grown in 15 ml of SC-ura medium containing 2% glucose then transferred to SC-ura+2% galactose and 1% raffinose. After 12 hours LCA1 expression induction, the culture was diluted to correspond to OD600 value of 0.5, 1, 2, 3, 4. Five μl of each dilution was spotted to a YPD plate supplemented with varying concentrations of Lyso-PAF. The plates were incubated at 28° C. for two days.

[2] = test system: lca1Δ yeast mutant (Y02431); assay type: cell-based, Saccharomyces cerevisiae
Description: as §1, §2
Lyso-PAF sensitivity: Yeast strains BY02431 carrying pYES 2.1-AtLPCATs or the empty vector were first grown in 15 ml of SC-Leu-His-ura medium containing 2% glucose. Yeast transformant strains of AtLPCATs were first grown in YPD overnight. Protein expression induction were carried out by protocol described in Invitrogen manufacturer manual for yeast expression vector pYES2.1. After 12 hours induction, 5 μl cultures were inoculated onto YPD plate with 10 μg/ml lysoPAF. The plates were incubated at 28° C. for two days. The final lysoPAF is 10/ml.

LCA1 (YOR175c) = target: T1, LCA1 (YOR175c) (Saccharomyces cerevisiae, UniProt Q08548); experiment: In vitro assay of LPCAT activity: substrate specificity and kinetics of LCA1 (YOR175c); assay type: biochemical; conditions: for Rate of acylation as % of the activity registered for LPC: [^14C] palmitoyl-CoA as acyl donor, 50 μM lysophospholipid, microsomes of lca1Δ expressing YOR175c
T1 construct: Saccharomyces cerevisiae YOR175c ORF was PCR-amplified; made in house; host or cells: S. cerevisiae YOR175c deletion strain Y02431 (lca1Δ), pYES2.1, galactose induction; microsomal fraction
T1 sequence (Q08548 1-619): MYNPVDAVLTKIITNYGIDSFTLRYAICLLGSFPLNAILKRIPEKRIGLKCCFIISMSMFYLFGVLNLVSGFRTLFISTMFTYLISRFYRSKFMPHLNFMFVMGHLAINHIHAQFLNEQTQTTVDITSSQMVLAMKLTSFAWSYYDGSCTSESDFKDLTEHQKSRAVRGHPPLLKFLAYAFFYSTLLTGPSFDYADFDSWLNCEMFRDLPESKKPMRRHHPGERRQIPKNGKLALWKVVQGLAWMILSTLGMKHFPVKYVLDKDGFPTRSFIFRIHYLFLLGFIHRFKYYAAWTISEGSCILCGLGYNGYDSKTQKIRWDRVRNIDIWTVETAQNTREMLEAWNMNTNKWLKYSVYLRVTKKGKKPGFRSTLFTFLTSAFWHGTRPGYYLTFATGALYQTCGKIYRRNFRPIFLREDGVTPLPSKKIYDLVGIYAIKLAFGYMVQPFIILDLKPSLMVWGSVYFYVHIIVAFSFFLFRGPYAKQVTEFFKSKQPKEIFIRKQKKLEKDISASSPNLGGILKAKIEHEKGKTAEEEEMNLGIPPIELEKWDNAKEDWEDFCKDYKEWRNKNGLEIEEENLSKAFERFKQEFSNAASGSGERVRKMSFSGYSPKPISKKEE
Description: FIG. 11 is a graph showing the substrate specificity of LCA1. The assays were performed with 3 μg microsomal protein from lca1Δ harboring an empty vector (V0) and lca1Δ expressing LCA1. The reaction contained 112.5 μm [^14C] palmitoyl-CoA (5.5 nCi/nmol) and 50 μM lysophospholipid substrate (LPA, LPC, LPE, LPG, LPI, and LPS). Reaction was allowed for two minutes with 100 rpm shaking. The results are presented as a mean of three assays.
(§3) Microsomal preparation: Yeast strains were first grown in 15 ml of SC-Leu-His-Ura medium containing 2% glucose. Protein expression induction was carried out as described in Invitrogen manufacturer manual for yeast expression vector pYES2.1. After 24 hours of growth in SC+2% galactose+1% raffinose induction conditions, the cells were washed, first with distilled water and then with wall-breaking buffer (50 mM Tris-HCl, 1 mM EDTA, 0.6 M sorbitol, pH 7.4, 1 mM DTT). After centrifugation at 4,000 rpm (Eppendorf Centrifuge 5145C), the cells were resuspended in 1 ml wall-breaking buffer with 10 μl yeast protease cocktail (Sigma), and shaken vigorously in the presence of acid-washed glass beads (diameter 0.5 mm). The resultant homogenate was centrifuged at 12,000 rpm for ten minutes at 4° C. The decanted supernatant was further centrifuged at 100,000×g for 90-120 minutes at 4° C. The supernatant was discarded, and the pellet was suspended in homogenization buffer containing 20% glycerol and frozen at −80° C. until use. Protein concentration was measured using Bio-Rad Protein Assay Kit for final enzyme activity calculation.
(§4) In Vitro Assay of LPCAT activity: LPCAT substrate specificity was determined by measuring incorporation of [^14C] lysophosphatidylcholine or [^14C] palmitoyl-CoA into phosphatidylcholine. All assays were performed at least twice. For lysophospholipid substrate specificity assessment, 400 μl HEPES buffer contained 3 μg microsomal protein, 50 μM of lysophospholipid substrates and 112.5 μM [^14C] palmitoyl-CoA (5.5 nCi/nmol). For acyl-CoA substrate selectivity analysis, 400 μl HEPES reaction buffer (pH7.4, 0.1 M) contained 3 μg microsomal protein, 50 μM acyl-CoA and 112.5 μM [^14C] […] (1.35 nCi/nmol). Reaction was allowed for 2 minutes at 30° C. with 100 rpm shaking. The reaction products were extracted with chloroform/methanol (2/1, v/v) and separated with Merck silica G60 TLC plates. Spots corresponding to different phospholipid species products were scraped off and ^14C incorporation were scintillation counted. Different concentrations of ZnCl2 were added in to reactions for Zn^2+ inhibitory effect assay.

LCA1 = target: T2, LCA1 (Saccharomyces cerevisiae, UniProt Q08548); experiment: Zn^2+ / Mg^2+ effect on LPCAT activity of LCA1 (in vitro assay, microsomes of lca1Δ over-expressing LCA1); assay type: biochemical; conditions: concentration ranging from 5 to 40 μM (data not shown)
T2 construct: Saccharomyces cerevisiae YOR175c ORF was PCR-amplified; made in house; host or cells: S. cerevisiae YOR175c deletion strain Y02431 (lca1Δ), pYES2.1, galactose induction; microsomal fraction
T2 sequence (Q08548 1-619): T1 sequence (Q08548 1-619)
Description: as §3, §4
Results are expressed as means±S.D. The lca1Δ over-expressing LCA1 was used to assess Zn^2+ effect. The reactions contained 5.6 μM palmitoyl-LPC (1.35 nCi/nmol), 1.5 μg microsomal proteins, 0.1 M HEPES (pH 7.4), 11.25 μM stearyl-CoA and indicated concentration of ZnCl2. The reaction was stopped after two minutes by adding 2 ml of chloroform/methanol solution (2:1).

## lysophosphatidylcholine [LPC]
[1]
  Level tolerated: up to 20 μg/ml
[2]; lca1Δ, plate assay
  Level tolerated: up to 20 μg/ml
LCA1 (YOR175c); [^14C] palmitoyl-CoA, LPA, LPC, LPE, LPG, LPI, LPS compared
  Acyltransferase activity among lysophospholipid substrates: highest activity

## lysophosphatidylglycerol [LPG]
LCA1 (YOR175c)
  Rate of acylation as % of the activity registered for LPC: approximately 60%

## [Mg+2] [Mg^2+]
LCA1
  Effect on LPCAT activity of LCA1: did not detect significant effect

## 1-O-alkyl-sn-glycero-3-phosphocholine [lyso-PAF]
[2]; 10 ug/ml on YPD plate
  Growth of lpcat yeast mutant: incapable of growth
[2]; lca1Δ mutant, plate assay
  Concentration above which hypersensitivity is displayed: above 5 μg/ml

## CCCCCCCCCCCCCCCC(=O)OC[C@@H](O)COP(=O)([O-])OCC[N+](C)(C)C [LPC (16:0), palmitic (16:0)-LPC]
LCA1 (YOR175c); data not shown
  Concentration above which inhibitory effects on LPCAT activity are exerted: above 75 μM

## lysophosphatidylethanolamine [LPE]
LCA1 (YOR175c)
  Rate of acylation as % of the activity registered for LPC: ~20%

B1: LCA1: yeast (S. cerevisiae) LPC acyltransferase encoded by YOR175c, SEQ ID NO:2 (protein, listed as Saccharomyces cerevisiae)
chain: T1 sequence (Q08548 1-619)
LCA1 (YOR175c); Lineweaver-Burk double-reciprocal plot
  Vmax: 524 pmol/min/μg protein
LCA1 (YOR175c); Lineweaver-Burk double-reciprocal plot, read-out: apparent Km for acyl-CoA
  Km: 0.89 ± 0.25 µM
LCA1 (YOR175c); lyso-PAF as acyl acceptor
  Increase in lyso-PAF acyltransferase activity on over-expression: 86.3 fold
